Test results reported in the supplement of paper PMC10307832.

Assays:
Assay in all cases: relative viability (nuclei count vs DMSO), 5 days (fraction); higher = more cells survive
Trametinib + Foretinib = compound: CC(=O)Nc1cccc(-n2c(=O)n(C3CC3)c(=O)c3c(Nc4ccc(I)cc4F)n(C)c(=O)c(C)c32)c1 [Trametinib] + COc1cc2c(Oc3ccc(NC(=O)C4(C(=O)Nc5ccc(F)cc5)CC4)cc3F)ccnc2cc1OCCCN1CCOCC1 [Foretinib] (partner 0.25 µM)
How it was run: (§1)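 Relative viability is defined as nuclei in treated wells over nuclei in vehicle wells. Duplicate plates were run and medians reported. Lung cancer cell lines in 1536-well plates were dosed by pin tool one day after seeding, with one drug or with a fixed anchor-drug dose plus five library-drug doses (not always all listed) in √10 steps, and nuclei were counted after 5 days.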

[1] = compound: CN1C=C(C2=CC=CC=C21)/C=C\3/C4=C(C=CC=N4)NC3=O + Cc1nc(NC(=O)N2CCC[C@H]2C(N)=O)sc1-c1ccnc(C(C)(C)C(F)(F)F)c1 [Alpelisib] (partner 2 µM)
How it was run: as §1

Trametinib + Navitoclax = compound: CC(=O)Nc1cccc(-n2c(=O)n(C3CC3)c(=O)c3c(Nc4ccc(I)cc4F)n(C)c(=O)c(C)c32)c1 [Trametinib] + CC1(C)CCC(c2ccc(Cl)cc2)=C(CN2CCN(c3ccc(C(=O)NS(=O)(=O)c4ccc(N[C@H](CCN5CCOCC5)CSc5ccccc5)c(S(=O)(=O)C(F)(F)F)c4)cc3)CC2)C1 [Navitoclax] (partner 0.5 µM)
How it was run: as §1

[2] = compound: CN1C=C(C2=CC=CC=C21)/C=C\3/C4=C(C=CC=N4)NC3=O + Cc1cc(Nc2cc(N3CCN(C)CC3)nc(Sc3ccc(NC(=O)C4CC4)cc3)n2)n[nH]1 [Tozasertib] (partner 0.1 µM)
How it was run: as §1

Row | Cell Line | relative viability (Trametinib + Foretinib; first compound 0.0025 µM) | relative viability (Trametinib + Foretinib; first compound 0.007906 µM) | relative viability (Trametinib + Foretinib; first compound 0.025 µM) | relative viability (Trametinib + Foretinib; first compound 0.07906 µM) | relative viability (Trametinib + Foretinib; first compound 0.25 µM) | relative viability ([1]; first compound 0.02 µM) | relative viability ([1]; first compound 0.06325 µM) | relative viability ([1]; first compound 0.2 µM) | relative viability ([1]; first compound 0.6325 µM) | relative viability ([1]; first compound 2 µM) | relative viability (Trametinib + Navitoclax; first compound 0.0025 µM) | relative viability (Trametinib + Navitoclax; first compound 0.007906 µM) | relative viability (Trametinib + Navitoclax; first compound 0.025 µM) | relative viability (Trametinib + Navitoclax; first compound 0.07906 µM) | relative viability (Trametinib + Navitoclax; first compound 0.25 µM) | relative viability ([2]; first compound 0.06325 µM) | relative viability ([2]; first compound 0.2 µM) | relative viability ([2]; first compound 0.6325 µM) | relative viability ([2]; first compound 2 µM) | relative viability ([2]; first compound 0.02 µM)
1 | NCI-H2347 | 1.08 | 0.43 | 0.31 | 0.46 | 0.387 | 1.09 | 0.972 | 1.02 | 0.89 | 1.1 | 0.678 | 0.328 | 0.143 | 0.198 | 0.215 | 0.421 | 0.556 | 0.512 | 0.681 | –
2 | NCI-H1793 | 0.661 | 0.349 | 0.393 | 0.256 | 0.237 | 0.979 | 1.02 | 0.654 | 0.668 | 0.675 | 0.36 | 0.345 | 0.265 | 0.216 | 0.133 | 0.37 | 0.296 | 0.258 | 0.197 | 0.306
3 | NCI-H1651 | 0.773 | 0.687 | 0.702 | 0.652 | 0.671 | 0.916 | 0.947 | 1.06 | 0.998 | 0.921 | 1.02 | 0.943 | 0.933 | 0.844 | 0.778 | 0.673 | 0.664 | 0.698 | 0.728 | 0.799
4 | HCC-78 | 0.515 | 0.392 | 0.513 | 0.443 | 0.403 | 0.289 | 0.509 | 0.304 | 0.282 | 0.287 | 0.728 | 0.591 | 0.558 | 0.624 | 0.42 | 0.424 | – | 0.271 | 0.426 | 0.386
5 | NCI-H23 | 0.874 | 0.675 | 0.549 | 0.513 | 0.343 | 0.628 | 0.522 | – | 0.602 | 0.689 | 0.624 | 0.58 | 0.347 | 0.344 | 0.247 | 0.365 | 0.304 | 0.328 | 0.227 | 0.48
6 | LOU-NH91 | 0.909 | 0.805 | 0.733 | 0.757 | 0.549 | 0.658 | 0.698 | 0.598 | 0.698 | 0.69 | 0.657 | 0.528 | 0.57 | 0.448 | 0.32 | 0.661 | 0.621 | 0.688 | 0.657 | 0.567
7 | LXF-289 | 0.956 | 0.863 | 0.77 | 0.661 | 0.595 | 1.09 | 1.06 | 1.12 | 1.02 | 1.1 | 0.872 | 0.755 | 0.721 | 0.63 | 0.538 | 0.195 | 0.217 | 0.213 | 0.182 | 0.14
